Reference: PubChem BioAssay AID248 (DTP/NCI, 2004)
Several values for one entry are separate records, joined by “and”; a condition that tells them apart may be missing. Equal entries are not always repeated. Toxic doses and inconclusive results are not listed. Cut-off read from the data, not from the text of the source: active = T/C of 150% or more; inactive = T/C below 125%.

Test system: L1210 leukemia ip in BDF1 mice, survival T/C
Assay: NCI In Vivo Anticancer Drug Screen. Data for tumor model L1210 Leukemia (intraperitoneal) in B6D2F1 (BDF1) mice
Settings: endpoint: mean survival time, higher = longer survival
Summary of the method: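 Antitumor effect is assessed in tumor-bearing animals. Survival in the compound arm is compared with a vehicle-dosed control arm and expressed as their quotient.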

[1] = dose: 100.0 mg/kg/injection, schedule: Q04DX003 (ip), vehicle: saline with Tween-80
[2] = dose: 100.0 mg/kg/injection, schedule: Q04DX002 (ip), vehicle: Klucel (hydroxypropylcellulose) (HPC)
[3] = dose: 200.0 mg/kg/injection, schedule: Q04DX002 (ip), vehicle: Klucel (hydroxypropylcellulose) (HPC)
[4] = dose: 400.0 mg/kg/injection, schedule: Q04DX002 (ip), vehicle: Klucel (hydroxypropylcellulose) (HPC)
[5] = dose: 200.0 mg/kg/injection, schedule: Q04DX003 (ip), vehicle: saline with Tween-80
[6] = dose: 400.0 mg/kg/injection, schedule: Q04DX003 (ip), vehicle: saline with Tween-80
[7] = dose: 50.0 mg/kg/injection, schedule: Q04DX003 (ip), vehicle: saline with Tween-80
[8] = dose: 100.0 mg/kg/injection, schedule: Q04DX003 (ip), vehicle: saline
[9] = dose: 200.0 mg/kg/injection, schedule: Q01DX001 (ip), vehicle: carboxymethylcellulose (CMC)
[10] = dose: 200.0 mg/kg/injection, schedule: Q04DX003 (ip), vehicle: saline
[11] = dose: 100.0 mg/kg/injection, schedule: Q04DX003 (ip), vehicle: Klucel (hydroxypropylcellulose) (HPC)
[12] = dose: 400.0 mg/kg/injection, schedule: Q04DX003 (ip), vehicle: saline
[13] = dose: 100.0 mg/kg/injection, schedule: Q01DX009 (ip), vehicle: saline with Tween-80
[14] = dose: 200.0 mg/kg/injection, schedule: Q01DX009 (ip), vehicle: saline with Tween-80
[15] = dose: 100.0 mg/kg/injection, schedule: Q01DX001 (ip), vehicle: other
[16] = dose: 200.0 mg/kg/injection, schedule: Q01DX001 (ip), vehicle: other
[17] = dose: 100.0 mg/kg/injection, schedule: Q01DX009 (ip), vehicle: Klucel (hydroxypropylcellulose) (HPC)
[18] = dose: 200.0 mg/kg/injection, schedule: Q01DX009 (ip), vehicle: Klucel (hydroxypropylcellulose) (HPC)
[19] = dose: 400.0 mg/kg/injection, schedule: Q01DX009 (ip), vehicle: Klucel (hydroxypropylcellulose) (HPC)
[20] = dose: 75.0 mg/kg/injection, schedule: Q01DX001 (ip), vehicle: saline

Measured: T/C

O=C1OCC/C1=C\C1CC=CCC1 (stereo unspecified)
inactive: dose: 67.0 mg/kg/injection, schedule: Q04DX003 (ip), vehicle: saline with Tween-80 96 % of control | [1] 88 % of control | dose: 150.0 mg/kg/injection, schedule: Q04DX003 (ip), vehicle: saline with Tween-80 96 % of control

CCN1CCCN(CC)C1=O
inactive: [2] 96 % of control | [3] 96 % of control | [4] 90 % of control

CC(=O)Nc1cccc2c1C(=O)c1ccccc1-2
inactive: [1] 102 % of control | [5] 112 % of control | [6] 102 % of control

O=C1C=CC(=O)N1c1ccc2c(c1)Cc1ccccc1-2
inactive: [7] 98 % of control | [1] 108 % of control and 115 % of control | [5] 87 % of control

CS(=O)(=O)c1nc(N)nc2nc[nH]c12
inactive: dose: 7.5 mg/kg/injection, schedule: Q01DX Z (ip), vehicle: methylcellulose (MC) 95 % of control | dose: 10.0 mg/kg/injection, schedule: Q01DX001 (ip), vehicle: carboxymethylcellulose (CMC) 101 % of control | dose: 12.5 mg/kg/injection, schedule: Q01DX009 (ip), vehicle: saline 109 % of control | dose: 15.0 mg/kg/injection, schedule: Q01DX Z (ip), vehicle: methylcellulose (MC) 115 % of control | dose: 25.0 mg/kg/injection, schedule: Q01DX009 (ip), vehicle: saline 100 % of control | dose: 30.0 mg/kg/injection, schedule: Q01DX Z (ip), vehicle: methylcellulose (MC) 117 % of control | dose: 50.0 mg/kg/injection, schedule: Q01DX001 (ip), vehicle: saline 95 % of control | dose: 50.0 mg/kg/injection, schedule: Q01DX009 (ip), vehicle: saline 102 % of control | dose: 50.0 mg/kg/injection, schedule: Q04DX003 (ip), vehicle: saline 98 % of control | dose: 60.0 mg/kg/injection, schedule: Q01DX Z (ip), vehicle: carboxymethylcellulose (CMC) 119 % of control | dose: 60.0 mg/kg/injection, schedule: Q01DX Z (ip), vehicle: methylcellulose (MC) 123 % of control | dose: 75.0 mg/kg/injection, schedule: Q01DX Z (ip), vehicle: methylcellulose (MC) 120 % of control | dose: 100.0 mg/kg/injection, schedule: Q01DX001 (ip), vehicle: saline 101 % of control | dose: 100.0 mg/kg/injection, schedule: Q01DX009 (ip), vehicle: saline 97 % of control | [8] 93 % of control | [9] 100 % of control | dose: 200.0 mg/kg/injection, schedule: Q01DX001 (ip), vehicle: saline 117 % of control | dose: 200.0 mg/kg/injection, schedule: Q01DX009 (ip), vehicle: saline 103 % of control | [10] 98 % of control

COc1ccc(C[n+]2cccc(NC(=O)COc3ccc(Cl)c(Cl)c3)c2)cc1
inactive: [11] 97 % of control

O=S(Cc1ncc2cnccn12)c1ccccc1 (stereo unspecified)
inactive: dose: 50.0 mg/kg/injection, schedule: Q01DX005 (ip), vehicle: saline 110 % of control | dose: 100.0 mg/kg/injection, schedule: Q01DX005 (ip), vehicle: saline 104 % of control | [8] 101 % of control | dose: 200.0 mg/kg/injection, schedule: Q01DX005 (ip), vehicle: saline 104 % of control | [10] 105 % of control | dose: 400.0 mg/kg/injection, schedule: Q01DX005 (ip), vehicle: saline 105 % of control | [12] 105 % of control

CC(C)[O][In]([O]C(C)C)[O]C(C)C
inactive: [7] 96 % of control | [1] 99 % of control | [5] 91 % of control | [6] 96 % of control

CCCCCCCC/C=C/CCCCCCCCNC(=O)NCCCl
inactive: [13] 95 % of control | [1] 87 % of control | [14] 92 % of control | [5] 87 % of control | [6] 94 % of control

CC(C)NC(=O)Nc1cccc(OC(=O)NC(C)(C)C)c1
inactive: [1] 88 % of control | [5] 91 % of control | [6] 89 % of control

CCOC(=O)c1ccc(N2C(=O)c3cccc4cccc(c34)C2=O)cc1
inactive: [13] 95 % of control | [1] 103 % of control | [14] 89 % of control | [5] 98 % of control | dose: 400.0 mg/kg/injection, schedule: Q01DX009 (ip), vehicle: saline with Tween-80 89 % of control | [6] 95 % of control

CCOC(=O)Nc1cc2c(c(N)n1)N=C(CN(C)c1ccc(C(=O)OC)cc1)CN2
inactive: dose: 5.0 mg/kg/injection, schedule: Q01DX009 (ip), vehicle: saline with Tween-80 105 % of control | dose: 10.0 mg/kg/injection, schedule: Q01DX009 (ip), vehicle: saline with Tween-80 118 % of control | dose: 20.0 mg/kg/injection, schedule: Q01DX009 (ip), vehicle: saline with Tween-80 124 % of control | [15] 107 % of control | [16] 111 % of control

CCCCCn1cnc2c(=S)nc[nH]c21
inactive: dose: 50.0 mg/kg/injection, schedule: Q01DX001 (ip), vehicle: carboxymethylcellulose (CMC) 92 % of control | dose: 100.0 mg/kg/injection, schedule: Q01DX001 (ip), vehicle: carboxymethylcellulose (CMC) 92 % of control | dose: 100.0 mg/kg/injection, schedule: Q01DX009 (ip), vehicle: acetone 93 % of control | [8] 92 % of control | [9] 97 % of control | dose: 200.0 mg/kg/injection, schedule: Q01DX009 (ip), vehicle: acetone 95 % of control | [10] 100 % of control | dose: 400.0 mg/kg/injection, schedule: Q01DX001 (ip), vehicle: carboxymethylcellulose (CMC) 90 % of control | dose: 400.0 mg/kg/injection, schedule: Q01DX009 (ip), vehicle: acetone 93 % of control | [12] 103 % of control

C=CS(=O)CCCCCCCC (stereo unspecified)
inactive: [2] 102 % of control | [3] 102 % of control

COc1cc([N+](=O)[O-])ccc1NC(=O)Nc1ccc(Cl)cc1[N+](=O)[O-]
inactive: [17] 100 % of control | [18] 95 % of control | [19] 90 % of control

CC(=O)Nc1ccc(S(=O)(=O)SC(F)(F)F)cc1
inactive: dose: 5.0 mg/kg/injection, schedule: Q01DX001 (ip), vehicle: saline 97 % of control | dose: 10.0 mg/kg/injection, schedule: Q01DX001 (ip), vehicle: saline 98 % of control | dose: 20.0 mg/kg/injection, schedule: Q01DX001 (ip), vehicle: saline 101 % of control

CCNCC
inactive: [8] 93 % of control | [10] 101 % of control | [12] 101 % of control

O=CN/N=C/c1ccc(Cl)cc1Cl
inactive: [20] 95 % of control | dose: 150.0 mg/kg/injection, schedule: Q01DX001 (ip), vehicle: saline 104 % of control

Nc1nc(N)nc(N)n1 (tested in a mixture with another compound)
inactive: [1] 89 % of control | [5] 89 % of control

CCc1cc2c([nH]c3ccccc32)c(C)c1CCN(C)C
inactive: dose: 50.0 mg/kg/injection, schedule: Q01DX001 (ip), vehicle: other 101 % of control | [15] 97 % of control | [16] 95 % of control

CNc1ccccc1C(=O)N/N=C/Cc1ccccc1
inactive: [2] 103 % of control | [3] 92 % of control | [4] 106 % of control

COC(=O)CNc1ccc(S(=O)(=O)c2ccc(N)cc2)cc1
inactive: [17] 107 % of control | [11] 97 % of control | [18] 92 % of control | dose: 200.0 mg/kg/injection, schedule: Q04DX003 (ip), vehicle: Klucel (hydroxypropylcellulose) (HPC) 101 % of control | [19] 88 % of control | dose: 400.0 mg/kg/injection, schedule: Q04DX003 (ip), vehicle: Klucel (hydroxypropylcellulose) (HPC) 97 % of control

O=C(CN1CCCCC1)Nc1ccc(S(=O)(=O)c2ccc([N+](=O)[O-])cc2)cc1
inactive: [20] 87 % of control

C1CCC2CC(NC3=NCCO3)CCC2C1 (stereo unspecified)
inactive: dose: 0.19 mg/kg/injection, schedule: Q01DX009 (ip), vehicle: Klucel (hydroxypropylcellulose) (HPC) 96 % of control | dose: 0.39 mg/kg/injection, schedule: Q01DX009 (ip), vehicle: Klucel (hydroxypropylcellulose) (HPC) 98 % of control | dose: 0.78 mg/kg/injection, schedule: Q01DX009 (ip), vehicle: Klucel (hydroxypropylcellulose) (HPC) 98 % of control and 113 % of control

O=C(c1ccccc1Cl)c1cccc2ccccc12
inactive: [8] 115 % of control | [10] 100 % of control | [12] 106 % of control
